The values below come from ChEMBL document CHEMBL5465560, “Selectivity Literature for EUbOPEN Chemogenomic Library” (2024).

Assay [1] has as its target Macrophage colony-stimulating factor 1 receptor (Homo sapiens) (UniProt P07333). As to the kind of experiment: Selectivity interaction (KinomeScan (DiscoverX)) EUB0001619a CSF1R. The note with it: at 1 µM.
The target of assay [2] is Phosphorylase b kinase gamma catalytic chain, skeletal muscle/heart isoform (Homo sapiens) (UniProt Q16816). The note with it: at 10 µM.
Assay [3] concerns Epidermal growth factor receptor (Homo sapiens), P00533 [UNDEFINED MUTATION]. As to the kind of experiment: Selectivity interaction (KinomeScan (DiscoverX)) EUB0000607a EGFR. The note with it: at 10 µM.
Assay [4] concerns the target Serine/threonine-protein kinase VRK2 (Homo sapiens) (UniProt Q86Y07). The note with it: at 10 µM.
Assay [5] has as its target T1, MAP/microtubule affinity-regulating kinase 4 (Homo sapiens) (UniProt Q96L34).
T1 sequence (whole entry): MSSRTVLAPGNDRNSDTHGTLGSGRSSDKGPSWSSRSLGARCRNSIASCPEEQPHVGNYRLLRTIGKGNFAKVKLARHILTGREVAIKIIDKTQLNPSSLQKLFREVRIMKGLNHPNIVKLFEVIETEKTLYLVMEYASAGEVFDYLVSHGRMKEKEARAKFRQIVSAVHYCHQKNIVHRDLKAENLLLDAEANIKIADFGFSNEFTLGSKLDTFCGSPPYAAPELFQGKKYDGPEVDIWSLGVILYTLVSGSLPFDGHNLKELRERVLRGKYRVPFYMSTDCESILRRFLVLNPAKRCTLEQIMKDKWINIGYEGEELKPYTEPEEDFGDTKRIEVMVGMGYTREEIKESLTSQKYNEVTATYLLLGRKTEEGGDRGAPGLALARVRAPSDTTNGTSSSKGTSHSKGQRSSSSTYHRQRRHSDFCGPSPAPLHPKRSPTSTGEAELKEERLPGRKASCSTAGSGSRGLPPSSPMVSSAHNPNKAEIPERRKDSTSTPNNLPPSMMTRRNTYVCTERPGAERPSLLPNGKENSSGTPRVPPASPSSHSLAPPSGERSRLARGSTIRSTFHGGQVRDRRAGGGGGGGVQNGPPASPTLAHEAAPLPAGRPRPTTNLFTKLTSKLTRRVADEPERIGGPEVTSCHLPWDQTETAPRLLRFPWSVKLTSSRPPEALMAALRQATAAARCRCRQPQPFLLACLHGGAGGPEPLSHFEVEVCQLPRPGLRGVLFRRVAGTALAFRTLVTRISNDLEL
As to the kind of experiment: Selectivity interaction (ActivX KiNativ screen (kinase selectivity in THP-1 cell lysates)) EUB0000639a MARK4. Format: subcellular. The note with it: lysate, at 5 µM.

Assay [6] concerns the target T2, Phosphatidylinositol 5-phosphate 4-kinase type-2 beta (Homo sapiens) (UniProt P78356).
T2 sequence (whole entry): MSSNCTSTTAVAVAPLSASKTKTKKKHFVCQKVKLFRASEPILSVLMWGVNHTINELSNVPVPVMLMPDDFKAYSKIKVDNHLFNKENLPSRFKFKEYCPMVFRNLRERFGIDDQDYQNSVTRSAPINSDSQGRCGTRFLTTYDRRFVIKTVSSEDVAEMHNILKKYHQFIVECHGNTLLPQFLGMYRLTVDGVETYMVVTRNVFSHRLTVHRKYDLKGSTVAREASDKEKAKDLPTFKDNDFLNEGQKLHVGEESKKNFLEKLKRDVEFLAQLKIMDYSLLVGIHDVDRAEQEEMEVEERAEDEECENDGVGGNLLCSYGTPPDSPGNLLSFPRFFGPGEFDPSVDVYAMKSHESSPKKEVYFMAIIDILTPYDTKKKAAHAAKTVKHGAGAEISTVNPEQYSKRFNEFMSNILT
Kind of assay: Selectivity interaction (ActivX KiNativ screen (kinase selectivity in THP-1 cell lysates)) EUB0000639a PIP4K2B. Format: subcellular. The note with it: lysate.

Assay [7] has as its target Cyclin-dependent kinase 9 (Homo sapiens, UniProt P50750). Kind of assay: Selectivity interaction (KinomeScan (DiscoverX)) EUB0000045b CDK9.
Assay [8] deals with LIM domain kinase 2 (Homo sapiens) (UniProt P53671). Kind of assay: Selectivity interaction (Ambit KINOMEscan and KiNATiv profiling in Jurkat cells) EUB0000090b LIMK2. The note with it: at 1 µM. In kind it is cell-based.
Assay [9] concerns the target Ribosomal protein S6 kinase beta-1 (Homo sapiens, UniProt P23443). As to the kind of experiment: Selectivity interaction (Ambit KINOMEscan and KiNATiv profiling in Jurkat cells) EUB0000090b RPS6KB1. In kind it is cell-based. The note with it: at 1 µM.
For assay [10], the target named is Phosphatidylinositol 4,5-bisphosphate 3-kinase catalytic subunit gamma isoform (Homo sapiens) (UniProt P48736). As to the kind of experiment: Selectivity interaction (KinomeScan (DiscoverX)) EUB0001049a PIK3CG. The note with it: at 1 µM.
The target in assay [11] is Mitogen-activated protein kinase 10 (Homo sapiens, UniProt P53779). As to the kind of experiment: Selectivity interaction (Upstate Kinase Profiler service (Millipore)) EUB0000056c MAPK10. The note with it: at 1 µM.
In assay [12] the target is Tyrosine-protein kinase CSK (Homo sapiens) (UniProt P41240). Kind of assay: Selectivity interaction (KinomeScan (DiscoverX)) EUB0000618a CSK. The note with it: at 10 µM.
The target in assay [13] is Serine/threonine-protein kinase 25 (Homo sapiens) (UniProt O00506). As to the kind of experiment: Selectivity interaction (KinomeScan (DiscoverX)) EUB0000618a STK25. The note with it: at 10 µM.
Assay [14] concerns the target Protein arginine N-methyltransferase 5 (Homo sapiens, UniProt O14744). As to the kind of experiment: Selectivity interaction (Methyltransferase screen (radiometric assays, panel of 8 PRMTs, 21 protein lysine methyltransferases, 3 DNA methyltransferases, and one RNA methyltransferase)) EUB0000272b PRMT5.
The target of assay [15] is Serine/threonine-protein kinase PLK3 (Homo sapiens, UniProt Q9H4B4). Kind of assay: Selectivity interaction (KinomeScan (DiscoverX)) EUB0001079a PLK3. The note with it: at 1 µM.
The target in assay [16] is 1-phosphatidylinositol 3-phosphate 5-kinase (Homo sapiens) (UniProt Q9Y2I7). As to the kind of experiment: Selectivity interaction (KinomeScan (DiscoverX)) EUB0000229b PIKFYVE. The note with it: at 10 µM.
The target in assay [17] is Serine/threonine-protein kinase 32C (Homo sapiens) (UniProt Q86UX6). Kind of assay: Selectivity interaction (KinomeScan (DiscoverX)) EUB0000229b STK32C. The note with it: at 10 µM.
Serine/threonine-protein kinase 32C (Homo sapiens), sequence (Q86UX6 whole entry): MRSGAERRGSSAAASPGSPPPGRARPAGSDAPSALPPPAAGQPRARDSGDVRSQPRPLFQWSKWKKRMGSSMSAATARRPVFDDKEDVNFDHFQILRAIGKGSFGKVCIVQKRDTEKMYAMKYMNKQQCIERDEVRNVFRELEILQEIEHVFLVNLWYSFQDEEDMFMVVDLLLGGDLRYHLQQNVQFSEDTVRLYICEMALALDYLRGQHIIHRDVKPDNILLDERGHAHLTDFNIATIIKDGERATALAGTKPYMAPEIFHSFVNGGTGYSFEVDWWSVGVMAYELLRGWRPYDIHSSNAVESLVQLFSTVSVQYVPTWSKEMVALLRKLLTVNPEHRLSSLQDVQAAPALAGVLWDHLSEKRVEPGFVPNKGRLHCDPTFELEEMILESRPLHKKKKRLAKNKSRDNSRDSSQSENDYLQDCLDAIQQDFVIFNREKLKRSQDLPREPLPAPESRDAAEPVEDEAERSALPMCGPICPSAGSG

Cyclin-dependent kinase 9, sequence (P50750 whole entry, the tested form may be a part): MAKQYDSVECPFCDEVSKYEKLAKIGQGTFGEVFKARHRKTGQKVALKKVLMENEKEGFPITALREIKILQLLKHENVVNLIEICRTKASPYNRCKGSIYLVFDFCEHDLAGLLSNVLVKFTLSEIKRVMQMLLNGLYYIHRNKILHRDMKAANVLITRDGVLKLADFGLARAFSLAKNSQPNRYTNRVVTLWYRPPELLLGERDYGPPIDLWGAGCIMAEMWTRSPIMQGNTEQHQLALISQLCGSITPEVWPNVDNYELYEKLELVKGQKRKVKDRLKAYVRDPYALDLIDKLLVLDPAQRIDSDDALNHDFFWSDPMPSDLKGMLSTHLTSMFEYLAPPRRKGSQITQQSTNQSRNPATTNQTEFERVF
Protein arginine N-methyltransferase 5, sequence (O14744 whole entry): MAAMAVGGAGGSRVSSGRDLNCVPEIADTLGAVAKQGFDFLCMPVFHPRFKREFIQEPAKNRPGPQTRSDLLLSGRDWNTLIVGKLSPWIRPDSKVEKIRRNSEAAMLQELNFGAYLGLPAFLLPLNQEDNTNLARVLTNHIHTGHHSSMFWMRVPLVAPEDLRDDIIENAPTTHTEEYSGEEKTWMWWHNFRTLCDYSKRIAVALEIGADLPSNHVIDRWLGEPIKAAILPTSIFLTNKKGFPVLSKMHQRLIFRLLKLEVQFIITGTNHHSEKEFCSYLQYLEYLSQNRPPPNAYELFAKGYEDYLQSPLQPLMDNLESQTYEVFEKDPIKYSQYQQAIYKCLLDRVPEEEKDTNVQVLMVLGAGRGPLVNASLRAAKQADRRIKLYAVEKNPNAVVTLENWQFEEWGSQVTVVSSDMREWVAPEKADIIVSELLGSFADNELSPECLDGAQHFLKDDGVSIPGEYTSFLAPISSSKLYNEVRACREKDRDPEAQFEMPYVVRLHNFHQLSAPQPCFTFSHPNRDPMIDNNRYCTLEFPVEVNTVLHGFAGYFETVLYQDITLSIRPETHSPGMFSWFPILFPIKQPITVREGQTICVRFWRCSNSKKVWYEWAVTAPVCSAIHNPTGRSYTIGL
Ribosomal protein S6 kinase beta-1, sequence (P23443 whole entry, looked up, canonical isoform): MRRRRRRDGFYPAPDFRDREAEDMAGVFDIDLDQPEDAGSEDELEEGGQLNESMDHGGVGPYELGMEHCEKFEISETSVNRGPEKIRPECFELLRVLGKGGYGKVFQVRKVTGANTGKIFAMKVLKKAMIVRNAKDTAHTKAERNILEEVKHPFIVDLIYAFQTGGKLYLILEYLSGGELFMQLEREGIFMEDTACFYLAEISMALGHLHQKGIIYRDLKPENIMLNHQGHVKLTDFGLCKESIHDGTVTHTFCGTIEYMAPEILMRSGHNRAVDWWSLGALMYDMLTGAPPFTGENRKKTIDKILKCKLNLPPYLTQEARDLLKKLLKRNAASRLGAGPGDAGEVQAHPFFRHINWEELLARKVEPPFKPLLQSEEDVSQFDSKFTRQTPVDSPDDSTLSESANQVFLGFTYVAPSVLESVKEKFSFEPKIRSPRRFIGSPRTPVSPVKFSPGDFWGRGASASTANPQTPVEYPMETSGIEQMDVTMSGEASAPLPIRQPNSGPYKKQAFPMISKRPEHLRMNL
Serine/threonine-protein kinase VRK2 (Homo sapiens), sequence (Q86Y07 whole entry): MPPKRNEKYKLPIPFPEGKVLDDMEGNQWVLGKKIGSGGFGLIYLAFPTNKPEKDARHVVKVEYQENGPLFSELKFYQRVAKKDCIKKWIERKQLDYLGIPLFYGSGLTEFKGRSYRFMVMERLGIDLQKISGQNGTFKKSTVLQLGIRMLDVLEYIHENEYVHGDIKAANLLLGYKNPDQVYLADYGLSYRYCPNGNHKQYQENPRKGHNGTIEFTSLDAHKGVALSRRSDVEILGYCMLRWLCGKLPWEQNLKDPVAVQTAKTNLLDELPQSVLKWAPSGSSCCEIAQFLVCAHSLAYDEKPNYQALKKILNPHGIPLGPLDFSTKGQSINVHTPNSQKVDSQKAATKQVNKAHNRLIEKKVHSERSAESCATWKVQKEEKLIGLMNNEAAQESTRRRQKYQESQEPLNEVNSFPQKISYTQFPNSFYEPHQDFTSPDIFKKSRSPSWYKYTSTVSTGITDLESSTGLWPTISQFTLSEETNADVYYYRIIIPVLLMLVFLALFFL
Epidermal growth factor receptor (Homo sapiens), P00533 [UNDEFINED MUTATION], sequence (P00533 whole entry, looked up, change not shown): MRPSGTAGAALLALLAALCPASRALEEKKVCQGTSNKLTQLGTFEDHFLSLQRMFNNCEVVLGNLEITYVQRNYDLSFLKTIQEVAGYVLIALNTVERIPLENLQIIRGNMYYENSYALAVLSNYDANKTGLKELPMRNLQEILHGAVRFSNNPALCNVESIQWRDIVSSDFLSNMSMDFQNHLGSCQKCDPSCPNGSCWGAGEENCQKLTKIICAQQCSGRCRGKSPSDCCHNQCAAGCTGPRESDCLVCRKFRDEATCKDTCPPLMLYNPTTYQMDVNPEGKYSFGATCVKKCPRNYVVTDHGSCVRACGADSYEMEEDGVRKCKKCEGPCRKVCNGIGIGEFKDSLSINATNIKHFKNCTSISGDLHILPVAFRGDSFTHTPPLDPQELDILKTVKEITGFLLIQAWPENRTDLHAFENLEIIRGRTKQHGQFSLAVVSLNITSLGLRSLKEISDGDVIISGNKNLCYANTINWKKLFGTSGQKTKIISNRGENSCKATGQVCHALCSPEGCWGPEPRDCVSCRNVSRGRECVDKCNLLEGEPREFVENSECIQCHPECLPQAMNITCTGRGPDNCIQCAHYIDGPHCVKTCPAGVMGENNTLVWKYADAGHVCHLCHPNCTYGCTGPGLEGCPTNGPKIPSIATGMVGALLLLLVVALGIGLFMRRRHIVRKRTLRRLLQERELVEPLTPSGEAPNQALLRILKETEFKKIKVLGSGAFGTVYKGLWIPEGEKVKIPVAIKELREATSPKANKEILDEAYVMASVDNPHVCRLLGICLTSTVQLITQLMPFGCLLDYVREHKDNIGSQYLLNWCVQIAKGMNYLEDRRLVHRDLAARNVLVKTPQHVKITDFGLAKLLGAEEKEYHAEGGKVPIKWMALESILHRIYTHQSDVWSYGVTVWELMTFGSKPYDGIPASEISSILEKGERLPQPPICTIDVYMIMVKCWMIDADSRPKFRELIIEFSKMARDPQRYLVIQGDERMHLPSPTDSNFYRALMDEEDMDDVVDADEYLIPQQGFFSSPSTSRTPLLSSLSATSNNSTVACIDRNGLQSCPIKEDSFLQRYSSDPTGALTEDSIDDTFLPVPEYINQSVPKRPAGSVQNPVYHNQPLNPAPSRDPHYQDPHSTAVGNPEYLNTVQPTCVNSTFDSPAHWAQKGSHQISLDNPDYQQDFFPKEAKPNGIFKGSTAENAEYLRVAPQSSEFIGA
Phosphorylase b kinase gamma catalytic chain, skeletal muscle/heart isoform (Homo sapiens), sequence (Q16816 whole entry, looked up, canonical isoform): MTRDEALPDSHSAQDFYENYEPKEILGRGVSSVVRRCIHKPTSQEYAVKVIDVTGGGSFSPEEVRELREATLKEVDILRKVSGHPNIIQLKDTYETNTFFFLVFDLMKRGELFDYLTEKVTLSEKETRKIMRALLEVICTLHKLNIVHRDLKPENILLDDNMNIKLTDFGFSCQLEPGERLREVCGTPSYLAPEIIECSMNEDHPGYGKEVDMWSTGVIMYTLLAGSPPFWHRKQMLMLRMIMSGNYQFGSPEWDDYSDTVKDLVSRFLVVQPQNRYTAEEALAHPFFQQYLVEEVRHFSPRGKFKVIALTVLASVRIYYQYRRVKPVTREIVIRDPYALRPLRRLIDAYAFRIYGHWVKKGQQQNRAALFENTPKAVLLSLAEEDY
Serine/threonine-protein kinase PLK3, sequence (Q9H4B4 whole entry, looked up): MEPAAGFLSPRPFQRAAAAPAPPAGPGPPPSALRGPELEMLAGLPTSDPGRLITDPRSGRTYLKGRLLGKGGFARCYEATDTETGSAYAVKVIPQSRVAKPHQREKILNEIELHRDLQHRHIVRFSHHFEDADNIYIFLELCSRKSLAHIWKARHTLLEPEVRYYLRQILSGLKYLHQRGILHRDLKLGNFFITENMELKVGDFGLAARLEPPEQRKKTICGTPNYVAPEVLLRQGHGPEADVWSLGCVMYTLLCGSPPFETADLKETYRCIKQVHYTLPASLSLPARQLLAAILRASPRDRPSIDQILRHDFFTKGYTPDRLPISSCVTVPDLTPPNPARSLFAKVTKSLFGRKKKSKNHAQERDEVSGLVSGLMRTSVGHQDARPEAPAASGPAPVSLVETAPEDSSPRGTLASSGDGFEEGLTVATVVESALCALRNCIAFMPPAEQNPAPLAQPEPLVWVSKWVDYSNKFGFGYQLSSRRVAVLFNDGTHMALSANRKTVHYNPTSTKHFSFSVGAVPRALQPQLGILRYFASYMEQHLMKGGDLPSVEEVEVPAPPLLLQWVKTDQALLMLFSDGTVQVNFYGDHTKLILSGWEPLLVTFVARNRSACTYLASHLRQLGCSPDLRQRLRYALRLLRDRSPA

`N#Cc1cccc(-c2c[nH]c3ncnc(N4CCOCC4)c23)c1`: the % of control in assay [1] was determined as 87%. `CCN(CC)CCCCNc1ncc2cc(-c3cc(OC)cc(OC)c3)c(NC(=O)NC(C)(C)C)nc2n1` showed a % of control in assay [2] of 100%. Regarding `CNC(=O)Nc1ccc(-c2nc(N3CC4CCC(C3)O4)c3cnn(C4CCC5(CC4)OCCO5)c3n2)cc1`, in assay [3], the % of control was determined as 50%. The molecule `Cc1cc([C@@H](C)Nc2ccccc2C(=O)O)c2nc(N3CCOCC3)cc(=O)n2c1` [AZD-6482] gave a % of control in assay [4] of 100%. `CC[C@@H]1[C@H](F)C(=O)N[C@@H]1COc1nccc2cc(C(N)=O)c(OC)cc12` [ZIMLOVISERTIB]: the % of inhibition in assay [5] is 27.1%; in [6] (at 0.01 µM), 11.7%; in assay [6] (at 0.04 µM) it was -9.5%; in [6] (at 0.2 µM), -6.6%; in [6] (at 1 µM), 4%; in [6] (at 5 µM), 0.1%.

Take `C=CC(=O)Nc1cc(-n2c(=O)ccc3cnc4ccc(-c5ccc(NS(C)(=O)=O)cc5)cc4c32)ccc1C`: the % of control is 100% in [7] (at 1 µM) and 95% in assay [7] (at 10 µM). In the case of `CN(C)C/C=C/C(=O)Nc1ccc(C(=O)N2CCCC(Nc3ncc(Cl)c(-c4c[nH]c5ccccc45)n3)C2)cc1` (stereo not drawn), the % of control in [8] was determined as 95%; in [9], 83%. Turning to `COc1cc(Nc2nc(C)cc(-c3cnn4nc(OC)ccc34)n2)cc(C(F)(F)F)c1`, in assay [10], the % of control amounted to 93%. As to `Cc1ccc(-c2ccc3c(ccc4sc5c(c43)NC[C@@H](C)NC5=O)n2)cn1`, the % of inhibition in assay [11] was -5%. With `O[C@H]1CC[C@H](Nc2ncc3nc(Nc4c(F)cc(F)cc4F)n([C@H]4CCOC4)c3n2)CC1`, the % of control in assay [12] was determined as 98%; in [13], 64%. For the molecule `Cc1cc(C)cc([C@H]2c3cc(C)ccc3NC(=O)CN2C(=O)c2ccc(Br)s2)c1`, the values for the % of activity in assay [14] (at 1 µM) and in [14] (at 10 µM) were 98.7% and 99%, respectively.

In assay [15], `Nc1cnc(N2CCc3cc(S(=O)(=O)Nc4c(F)cc(Cl)cc4F)cc(N4CCCC4=O)c32)nc1` [TP-020n] came in with a % of control of 100%. For `COc1cc(N(C)c2ccnc3ccc(C(F)(F)F)cc23)cc(OC)c1OC`, the % binding in assay [16] came out at 46%; in assay [17], 99%.
